Experiment [1] has as its system S. aureus ATCC 29213. It counts as cell-based. To be noted: ATCC 29213, 18 h.
The test system of experiment [2] is E. coli K12. It counts as cell-based. Particulars: K12, 18 h.
Experiment [3] concerns S. aureus / E. coli. Particulars: cited from earlier work.

≈ marks a conversion by molar mass, not a printed value. Peptide text beside a SMILES is read from it.

On to `CC[C@H](C)[C@H](NC(=O)CN)C(=O)NCC(=O)N[C@@H](CCCCN)C(=O)N[C@@H](Cc1ccccc1)C(=O)N[C@@H](CC(C)C)C(=O)N[C@@H](CCCCN)C(=O)N[C@@H](CCCCN)C(=O)N[C@@H](C)C(=O)N[C@@H](CCCCN)C(=O)N[C@@H](CCCCN)C(=O)N[C@@H](Cc1ccccc1)C(=O)NCC(=O)N[C@@H](CCCCN)C(=O)N[C@@H](C)C(=O)N[C@@H](Cc1ccccc1)C(=O)N[C@H](C(=O)N[C@@H](CCCCN)C(=O)N[C@H](C(=O)N[C@@H](CC(C)C)C(=O)N[C@@H](CCCCN)C(=O)N[C@@H](CCCCN)C(N)=O)[C@@H](C)CC)C(C)C` [MSI-78] (H-GIGKFLKKAKKFGKAFVKILKK-NH2), for which the MIC in experiment [1] turned out to be 12.5 mg/L (≈ 5.05 µM). As for `CC[C@H](C)[C@H](NC(=O)[C@H](CCCCN)NC(=O)CNC(=O)[C@H](C)NC(=O)[C@@H](NC(=O)[C@H](CCCCN)NC(=O)[C@H](C)NC(=O)[C@@H](NC(=O)[C@H](CCCCN)NC(=O)CNC(=O)[C@H](C)NC(=O)[C@@H](NC(=O)[C@H](CCCCN)NC(=O)[C@H](C)NC(=O)[C@@H](NC(=O)[C@H](CCCCN)NC(=O)CNC(=O)[C@H](C)NC(=O)[C@@H](NC(=O)[C@@H](N)CCCCN)[C@@H](C)CC)[C@@H](C)CC)[C@@H](C)CC)[C@@H](C)CC)[C@@H](C)CC)C(=O)N[C@@H](C)C(N)=O` [MSI-103] (H-KIAGKIAKIAGKIAKIAGKIA-NH2), the values for the MIC in experiment [1] and in experiment [2] were 25 mg/L (≈ 12.1 µM) and 1.6 mg/L (≈ 0.776 µM), respectively. For the compound Cateslytin, the “MIC S. aureus/MIC E. coli” value in experiment [3] was above 3.

These data come from PMC2868066 (Biochemistry, 2010).
